Assays:
[1] = target: T1, [Pyruvate dehydrogenase (acetyl-transferring)] kinase isozyme 2, mitochondrial (Homo sapiens, UniProt Q15119); experiment: Inhibition of N-terminal His6-SUMO tagged recombinant human PDK2 using [32P]-gamma-ATP assessed as decrease in incorporation of radioactivity into E1 protein incubated for 2 mins
[2] = target: T1, [Pyruvate dehydrogenase (acetyl-transferring)] kinase isozyme 2, mitochondrial; experiment: Binding affinity to N-terminal His6-SUMO tagged recombinant human PDK2 by isothermal titration calorimetry
[3] = target: T2, [Pyruvate dehydrogenase (acetyl-transferring)] kinase isozyme 1, mitochondrial (Homo sapiens, UniProt Q15118); experiment: Inhibition of recombinant human PDK1 in presence of E1 protein incubated for 10 mins by titration assay
T2 sequence (Q15118 whole entry): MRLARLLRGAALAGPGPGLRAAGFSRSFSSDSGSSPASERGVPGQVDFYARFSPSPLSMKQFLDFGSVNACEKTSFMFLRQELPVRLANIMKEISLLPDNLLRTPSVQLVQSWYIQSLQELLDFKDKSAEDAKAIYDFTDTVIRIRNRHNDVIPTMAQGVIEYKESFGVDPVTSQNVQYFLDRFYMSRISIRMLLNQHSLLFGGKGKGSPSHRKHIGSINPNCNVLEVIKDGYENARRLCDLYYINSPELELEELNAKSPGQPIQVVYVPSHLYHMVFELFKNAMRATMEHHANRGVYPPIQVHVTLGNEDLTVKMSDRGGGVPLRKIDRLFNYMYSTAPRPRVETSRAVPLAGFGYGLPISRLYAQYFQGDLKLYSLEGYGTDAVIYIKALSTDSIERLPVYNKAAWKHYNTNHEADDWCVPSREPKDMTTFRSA

[4] = target: T3, [Pyruvate dehydrogenase (acetyl-transferring)] kinase isozyme 3, mitochondrial (Homo sapiens, UniProt Q15120); experiment: Inhibition of recombinant human PDK3 in presence of E1 protein incubated for 10 mins by titration assay
T3 sequence (Q15120 whole entry): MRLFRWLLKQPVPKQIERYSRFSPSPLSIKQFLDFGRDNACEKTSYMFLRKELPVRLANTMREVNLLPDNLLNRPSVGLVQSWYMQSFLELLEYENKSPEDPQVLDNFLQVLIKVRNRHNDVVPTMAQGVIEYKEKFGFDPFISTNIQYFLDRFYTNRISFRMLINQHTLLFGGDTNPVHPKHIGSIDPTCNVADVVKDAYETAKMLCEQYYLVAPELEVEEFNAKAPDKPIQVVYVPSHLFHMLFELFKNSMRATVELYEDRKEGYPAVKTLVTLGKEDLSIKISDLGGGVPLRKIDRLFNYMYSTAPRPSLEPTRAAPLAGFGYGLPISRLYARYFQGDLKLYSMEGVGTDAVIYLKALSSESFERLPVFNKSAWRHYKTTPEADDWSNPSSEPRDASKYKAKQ

[5] = target: T4, [Pyruvate dehydrogenase (acetyl-transferring)] kinase isozyme 4, mitochondrial (Homo sapiens, UniProt Q16654); experiment: Inhibition of recombinant human PDK4 in presence of E1 protein incubated for 10 mins by titration assay
T4 sequence (Q16654 whole entry): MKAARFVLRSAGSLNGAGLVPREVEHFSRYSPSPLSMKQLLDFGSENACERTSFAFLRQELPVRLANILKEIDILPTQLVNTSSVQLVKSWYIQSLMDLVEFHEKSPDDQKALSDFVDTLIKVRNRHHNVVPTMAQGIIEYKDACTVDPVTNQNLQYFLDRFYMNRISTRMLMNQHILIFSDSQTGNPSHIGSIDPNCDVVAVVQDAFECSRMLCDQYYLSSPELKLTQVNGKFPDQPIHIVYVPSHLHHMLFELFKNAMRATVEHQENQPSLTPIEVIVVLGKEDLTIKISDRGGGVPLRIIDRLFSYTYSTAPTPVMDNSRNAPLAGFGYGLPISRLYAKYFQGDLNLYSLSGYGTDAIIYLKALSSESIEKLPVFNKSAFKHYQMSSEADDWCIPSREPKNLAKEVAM

[6] = target: T2, [Pyruvate dehydrogenase (acetyl-transferring)] kinase isozyme 1, mitochondrial; experiment: Inhibition of recombinant human PDK1 in presence of E1 protein and PDC core E2/E3BP incubated for 10 mins by titration assay
[7] = target: T1, [Pyruvate dehydrogenase (acetyl-transferring)] kinase isozyme 2, mitochondrial; experiment: Inhibition of N-terminal His6-SUMO tagged recombinant human PDK2 in presence of E1 protein and PDC core E2/E3BP incubated for 10 mins by titration assay
[8] = target: T3, [Pyruvate dehydrogenase (acetyl-transferring)] kinase isozyme 3, mitochondrial; experiment: Inhibition of recombinant human PDK3 in presence of E1 protein and PDC core E2/E3BP incubated for 10 mins by titration assay
[9] = target: T4, [Pyruvate dehydrogenase (acetyl-transferring)] kinase isozyme 4, mitochondrial; experiment: Inhibition of recombinant human PDK4 in presence of E1 protein and PDC core E2/E3BP incubated for 10 mins by titration assay
[10] = system: Plasma; experiment: Terminal half life in CD1 mouse plasma at 30 mg/kg, ip by LC-MS/MS analysis; format: ADME, organism-based; details: in vivo
[11] = system: Plasma; experiment: Cmax in CD1 mouse plasma at 30 mg/kg, ip by LC-MS/MS analysis; format: ADME, organism-based; design: dose 30 mg/kg, route intraperitoneal; details: in vivo
[12] = Tmax in CD1 mouse plasma at 30 mg/kg, ip by LC-MS/MS analysis; format: ADME, organism-based
[13] = system: Plasma; experiment: AUClast in CD1 mouse plasma at 30 mg/kg, ip by LC-MS/MS analysis; format: ADME, organism-based; design: dose 30 mg/kg, route intraperitoneal, time 0 - last; details: in vivo
[14] = system: Plasma; experiment: Apparent volume of distribution during terminal phase in CD1 mouse plasma at 30 mg/kg, ip by LC-MS/MS analysis; format: ADME, organism-based; details: in vivo
[15] = Apparent clearance in CD1 mouse plasma at 30 mg/kg, ip by LC-MS/MS analysis; format: ADME, organism-based
[16] = Terminal half life in CD1 mouse muscle at 30 mg/kg, ip by LC-MS/MS analysis; format: ADME, organism-based, Muscle tissue; details: read-out: beta t1/2
[17] = Cmax in CD1 mouse muscle at 30 mg/kg, ip by LC-MS/MS analysis; format: ADME, organism-based, Muscle tissue; design: dose 30 mg/kg, route intraperitoneal
[18] = Tmax in CD1 mouse muscle at 30 mg/kg, ip by LC-MS/MS analysis; format: ADME, organism-based, Muscle tissue
[19] = AUClast in CD1 mouse muscle at 30 mg/kg, ip by LC-MS/MS analysis; format: ADME, organism-based, Muscle tissue; details: in vivo
[20] = Apparent clearance in CD1 mouse muscle at 30 mg/kg, ip by LC-MS/MS analysis; format: ADME, organism-based, Muscle tissue; details: in vivo
[21] = Apparent volume of distribution during terminal phase in CD1 mouse muscle at 30 mg/kg, ip by LC-MS/MS analysis; format: ADME, organism-based, Muscle tissue; details: in vivo
[22] = system: Liver; experiment: Terminal half life in CD1 mouse liver at 30 mg/kg, ip by LC-MS/MS analysis; format: ADME, organism-based; details: in vivo
[23] = system: Liver; experiment: Cmax in CD1 mouse liver at 30 mg/kg, ip by LC-MS/MS analysis; format: ADME, organism-based; design: dose 30 mg/kg, route intraperitoneal; details: in vivo
[24] = system: Liver; experiment: Tmax in CD1 mouse liver at 30 mg/kg, ip by LC-MS/MS analysis; format: ADME, organism-based; details: in vivo
[25] = system: Liver; experiment: AUClast in CD1 mouse liver at 30 mg/kg, ip by LC-MS/MS analysis; format: ADME, organism-based; details: in vivo
[26] = system: Liver; experiment: Apparent volume of distribution during terminal phase in CD1 mouse liver at 30 mg/kg, ip by LC-MS/MS analysis; format: ADME, organism-based; details: in vivo
[27] = system: Liver; experiment: Apparent clearance in CD1 mouse liver at 30 mg/kg, ip by LC-MS/MS analysis; format: ADME, organism-based; details: in vivo
[28] = system: Mus musculus; experiment: In vivo inhibition of PDK in DIO C57BL/6J mouse assessed as increase in PDC activity in liver at 40 to 45 mg/kg/day administered through mini osmotic pump for 2 weeks relative to control; format: functional

Work on `NC(=O)CC[C@H](N)C(=O)N1CCC(Nc2ccc3c(c2)CN(S(=O)(=O)c2ccc(O)cc2O)C3)CC1` yielded an IC50 [1] of 72 nM.

In the case of `NC(=O)C[C@H](N)C(=O)N1CC[C@H](Nc2ccc3c(c2)CN(S(=O)(=O)c2ccc(O)cc2O)C3)C1`, the IC50 [1] is reported as 156 nM.

For `O=C(O)CCCCC(=O)N1CCC(Nc2ccc3c(c2)CN(S(=O)(=O)c2ccc(O)cc2O)C3)CC1`, the IC50 [1] was 1610 nM.

With `O=S(=O)(c1ccc(O)cc1O)N1Cc2ccc(NC3CCNCC3)cc2C1` the IC50 [1] was 195 nM and the Kd [2] was 110 nM.

With `O=C(O)c1ccccc1C(=O)N1CCC(Nc2ccc3c(c2)CN(S(=O)(=O)c2ccc(O)cc2O)C3)CC1` the IC50 [1] was 565 nM.

Molecule `NC(=O)C[C@H](N)C(=O)N1CCN(c2ccc3c(c2)CN(S(=O)(=O)c2ccc(O)cc2O)C3)CC1` has an IC50 [1] of 767 nM.

`O=C(C1C[C@@H](O)C(O)[C@H](O)C1)N1CCC(Nc2ccc3c(c2)CN(S(=O)(=O)c2ccc(O)cc2O)C3)CC1` (stereo partly specified) gave an IC50 [1] of 432 nM.

In the case of `O=S(=O)(c1ccc(O)cc1O)N1Cc2ccc(N3CCCCC3)cc2C1`, the IC50 [1] is reported as 4370 nM.

Molecule `NC(=O)C[C@H](N)C(=O)NCCNc1ccc2c(c1)CN(S(=O)(=O)c1ccc(O)cc1O)C2` has an IC50 [1] of 357 nM.

`NC(=O)C[C@H](N)C(=O)N1CCC(Nc2ccc3c(c2)CN(S(=O)(=O)c2ccc(O)cc2O)C3)CC1` gave an IC50 [1] of 58 nM, an IC50 [3] of 2540 nM and an IC50 [4] of 45800 nM. It also gave an IC50 [5] of 284 nM, an IC50 [6] of 2060 nM and an IC50 [7] of 81 nM. For the same molecule, the IC50 [8] was 1710 nM, the IC50 [9] was 416 nM and the Kd [2] was 22 nM. The “beta t1/2” value [10] was 288 min, the Cmax [11] was 5443 ng/mL and the Tmax [12] was 10 min. The AUClast [13] was 234088 ng·min/mL, the Vz/F [14] was 1289 mL and the CL/F [15] was 3.11 mL/min. The half-life [16] was 324 min, the Cmax [17] was 2420 ng/g and the Tmax [18] was 10 min. It also gave an AUClast [19] of 83083 ng·min/g, a CL/F [20] of 8.64 g/min and a Vz/F [21] of 4043 g. The “beta t1/2” value [22] was 303 min, the Cmax [23] was 18767 ng/g and the Tmax [24] was 30 min. It also gave an AUClast [25] of 2682301 ng·min/g, a Vz/F [26] of 116 g and a CL/F [27] of 0.266 g/min. The “fold change (FC)” value [28] was 6.

`NC(=O)C[C@H](N)C(=O)N1CC[C@@H](Nc2ccc3c(c2)CN(S(=O)(=O)c2ccc(O)cc2O)C3)C1` gave an IC50 [1] of 221 nM.

In the case of `N[C@@H](CO)C(=O)N1CCC(Nc2ccc3c(c2)CN(S(=O)(=O)c2ccc(O)cc2O)C3)CC1`, the IC50 [1] is reported as 68 nM.

For `Nc1ccc2c(c1)CN(S(=O)(=O)c1ccc(O)cc1O)C2`, the IC50 [1] was 1180 nM.
